In one data set the target is recombinant perforin (UniProt P10820). The class given is cell-based. Conditions: lysis of Jurkat T lymphoma cells by recombinant perforin, 0.1% BSA, 30 min pre-incubation, 4 hours at 37° C.; read-out: Jurkat IC50. On the procedure: Inhibition of perforin-mediated lysis of Jurkat cells.
The ability of the compounds to inhibit the lysis of nucleated (Jurkat T lymphoma) cells in the presence of 0.1% BSA, as measured by release of ^51Cr was measured. Jurkat target cells were labelled by incubation in medium with 100 μCi ^51Cr for one hour. The cells were then washed three times to remove unincorporated isotope and re-suspended at 1×10^5 cells per mL in RPMI buffer supplemented with 0.1% BSA. […] Each data point was performed in triplicate and an IC50 was calculated from the range of concentrations described to above.

Each structure is given as a SMILES string.

Sequence of recombinant perforin (P10820 whole entry): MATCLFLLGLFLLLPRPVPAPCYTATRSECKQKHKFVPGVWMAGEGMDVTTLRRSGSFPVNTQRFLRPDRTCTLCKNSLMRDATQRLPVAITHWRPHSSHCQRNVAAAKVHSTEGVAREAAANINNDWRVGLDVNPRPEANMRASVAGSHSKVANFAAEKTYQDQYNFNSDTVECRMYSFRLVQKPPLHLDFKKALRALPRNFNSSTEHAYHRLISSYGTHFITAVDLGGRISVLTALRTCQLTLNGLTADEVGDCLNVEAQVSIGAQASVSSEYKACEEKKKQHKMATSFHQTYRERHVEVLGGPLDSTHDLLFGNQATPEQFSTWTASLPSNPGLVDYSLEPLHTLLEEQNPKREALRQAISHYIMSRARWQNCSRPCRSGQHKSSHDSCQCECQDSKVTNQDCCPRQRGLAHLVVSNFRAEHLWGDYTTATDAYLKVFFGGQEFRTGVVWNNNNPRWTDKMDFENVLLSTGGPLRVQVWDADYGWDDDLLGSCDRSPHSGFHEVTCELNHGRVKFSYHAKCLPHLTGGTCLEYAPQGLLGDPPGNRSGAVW

For the molecule `CN1Cc2cc(-c3ccc(-c4cncc(NS(=O)(=O)c5cccnc5)c4)s3)ccc2C1=O` [Compound 32, N-(5-(5-(2-Methyl-1-oxoisoindolin-5-yl)thiophen-2-yl)pyridin-3-yl)pyridine-3-sulfonamide], the melting point (in general, the temperature of the solid-liquid transition) lay in the range of 283 to 286 °C. Moreover, the IC50 (in general, the concentration at which inhibition is half-maximal) at recombinant perforin was determined as 15.1 µM.

Take `COc1ncc(-c2ccc(-c3ccc4c(c3)CNC4=O)s2)cc1NS(=O)(=O)c1ccc(F)cc1F` [Compound 38, 2,4-Difluoro-N-(2-methoxy-5-(5-(1-oxoisoindolin-5-yl)thiophen-2-yl)pyridin-3-yl)benzene sulphonamide]: the melting point was in the range of 266 to 270 °C. On recombinant perforin, the IC50 came to 5.41 µM. Regarding `CN1Cc2cc(-c3ccc(-c4cncc(NS(=O)(=O)c5ccc(Cl)nc5)c4)s3)ccc2C1=O` [Compound 33, 6-Chloro-N-(5-(5-(2-methyl-1-oxoisoindolin-5-yl)thiophen-2-yl)pyridin-3-yl)pyridine-3-sulfonamide], the melting point lay within 260 to 265 °C. The molecule `CN1Cc2cc(-c3ccc(-c4cncc(NS(=O)(=O)c5ccc(Cl)cc5Cl)c4)s3)ccc2C1=O` [Compound 13, 2,4-Dichloro-N-(5-(5-(2-methyl-1-oxoisoindolin-5-yl)thiophen-2-yl)pyridin-3-yl)benzene-sulfonamide] gave a melting point of 282 to 285 °C. On recombinant perforin, the IC50 amounted to 15 µM.

The molecule `CN1Cc2cc(-c3ccc(-c4cncc(NS(=O)(=O)c5ccc(C(F)(F)F)cc5Cl)c4)s3)ccc2C1=O` [Compound 26, 2-Chloro-N-(5-(5-(2-methyl-1-oxoisoindolin-5-yl)thiophen-2-yl)pyridin-3-yl)-4-(trifluoromethyl)benzenesulfonamide] returned a melting point of 292 to 295 °C. Still for that read-out and setting: next, `O=C1NCCc2ccc(-c3ccc(-c4cncc(NS(=O)(=O)c5ccc(F)cc5F)c4)s3)cc21` [Compound 54, 2,4-Difluoro-N-(5-(5-(1-oxo-1,2,3,4-tetrahydroisoquinolin-7-yl)thiophen-2-yl)pyridin-3-yl)benzenesulfonamide]: 252 °C (dec.); `CN1Cc2cc(-c3ccc(-c4cncc(NS(=O)(=O)c5cccc(F)c5)c4)s3)ccc2C1=O` [Compound 5, 3-Fluoro-N-(5-(5-(2-methyl-1-oxoisoindolin-5-yl)thiophen-2-yl)pyridin-3-yl)benzene-sulfonamide]: 292 to 294 °C. For the molecule `CN1Cc2cc(-c3ccc(-c4cncc(NS(=O)(=O)c5ccccc5OC(F)(F)F)c4)s3)ccc2C1=O` [Compound 22, N-(5-(5-(2-Methyl-1-oxoisoindolin-5-yl)thiophen-2-yl)pyridin-3-yl)-2-(trifluoromethoxy)benzenesulfonamide], the melting point lay in the range of 251 to 254 °C. At recombinant perforin, the IC50 was 17.7 µM. On to `CN1Cc2cc(-c3ccc(-c4cncc(NC(=O)c5ccc(F)cc5F)c4)s3)ccc2C1=O` [Compound 47, 2,4-Difluoro-N-(5-(5-(2-methyl-1-oxoisoindolin-5-yl)thiophen-2-yl)pyridin-3-yl)benzamide], for which the melting point lay within 267 to 269 °C. Turning to `CN1Cc2cc(-c3ccc(-c4cncc(NS(=O)(=O)c5ccc(F)c(F)c5)c4)s3)ccc2C1=O` [Compound 7, 3,4-Difluoro-N-(5-(5-(2-methyl-1-oxoisoindolin-5-yl)thiophen-2-yl)pyridin-3-yl)benzene-sulfonamide], the melting point lay within 282 to 285 °C. Consider `CN1Cc2cc(-c3ccc(-c4cncc(NS(=O)(=O)c5ccc(C(C)(C)C)cc5)c4)s3)ccc2C1=O` [Compound 3, 4-(tert-Butyl)-N-(5-(5-(2-methyl-1-oxoisoindolin-5-yl)thiophen-2-yl)pyridin-3-yl)benzenesulfonamide], for which the melting point was 285 to 288 °C. `COc1ccccc1S(=O)(=O)Nc1cncc(-c2ccc(-c3ccc4c(c3)CN(C)C4=O)s2)c1` [Compound 18, 2-Methoxy-N-(5-(5-(2-methyl-1-oxoisoindolin-5-yl)thiophen-2-yl)pyridin-3-yl)benzenesulfonamide] showed a melting point of 273 to 276 °C. Besides, at recombinant perforin, the IC50 was found to be 14.8 µM.
